Measured values taken from US12134607B2, “Crystals of tetrahydronaphthyl urea derivative” (MOCHIDA PHARMACEUTICAL CO., LTD., priority 2017, dated 2024).
Converted amounts (≈) assume the structure as drawn.

Key:
[1] = Pharmacokinetic study, single oral dose in rats; type: in vivo; conditions: male, Crl:CD (SD), rat, plasma, po, 600 mg/kg
Experimental: (Pharmacology Experiment 5): Pharmacokinetic Study
Plasma sample obtained by centrifugation of blood (12000×g, for 5 minutes, at 4° C.) was measured to determine plasma concentration of the test compound using high performance liquid chromatography/mass spectrometry. Similarly, concentrations of standard solutions containing the test compound at known concentrations (0.001, 0.002, 0.005, 0.01, 0.02, 0.05, 0.1, 0.2, 0.5, 1, 2, and 5 μg/mL) were measured. And then, the plasma concentration (μg/mL) of the compound (1) was calculated from the prepared calibration curve to obtain the maximum plasma concentration (Cmax (μg/mL)) and the area under the plasma concentration-time curve (AUC (μg·hr/mL)). Measurement conditions can be appropriately adjusted by a person skilled in the art.

[2] = Determination of equilibrium solubility in phosphate buffer solution with pH 6.8; type: physicochemical; conditions: pH 6.8 phosphate buffer, 37° C., mean value of three measurements
Source text: (Test Example 1) Determination of Equilibrium Solubility (Determination of Solubility in Phosphate Buffer Solution with pH 6.8)
Each of the equilibrium solubilities (solubility in phosphate buffer solution with pH 6.8) of Type I (Example 2), III (Example 3), V (Example 4) and VI crystals (Example 5) of 1-((1R,2R)-2-hydroxy-4,4-dimethyl-1,2,3,4-tetrahydronaphthalen-1-yl)-3-(5-methyl-6-(2-methylpyrimidin-5-yl)-2-phenylpyridin-3-yl)urea obtained in the above (Example 2) to (Example 5) was determined as follows:
Water was added a weighed potassium dihydrogen phosphate of 2.7 g to make 100 mL volume to prepare 0.2 mol/L potassium dihydrogen phosphate solution. Water was added a weighed disodium hydrogen phosphate […] of 7.2 g to make 100 mL volume to prepare 0.2 mol/L disodium hydrogen phosphate solution. A pH 6.8 phosphate buffer solution was prepared by diluting a mixture of 0.2 mol/L potassium dihydrogen phosphate solution (14.8 mL) and 0.2 mol/L disodium hydrogen phosphate solution (10.0 mL) with water (173.6 mL).
Approximately 1 mg of the each crystal from (Example 2) to (Example 5) was weighed into a screw tube, and a pH 6.8 phosphate buffer solution (1 mL) was added. An isothermal shaker (M-BR-022UP) was used to incubate the sample at 37° C. and 1000 rpm for 24 hours. 100 μL solution were sampled at 1, 2, 6, and 24 hours after the start of incubation, and were filtered using a centrifuge (HITACHI, Himac cF 9RX, at 25° C., at 1500 rpm, for 30 seconds) with a filter (Millipore: Multiscreen, MSSLBPC10) so as to remove insoluble materials. A 20 μL of the filtrate was quantified, and diluted with a solution (180 μL, pH 9.0) of 20 vol % tetrahydrofuran and 80 vol % ammonium bicarbonate aqueous solution (10 mM). A 10 μL of the prepared solution was quantified, and diluted with a solution (190 μL, pH 9.0) of 20 vol % tetrahydrofuran and 80 vol % ammonium bicarbonate aqueous solution (10 mM). The prepared solution was analyzed by ultra performance liquid chromatography (UPLC) under the following measurement conditions, and the concentration of the compound in the solution was calculated based on a previously prepared calibration curve. Three times of measurements were made for each example compound, and the mean values and standard deviations of the three measurements are shown as a result in Table 6.
<UPLC measurement conditions> Equipment: ACQUITY UPLC H-Class (Waters) Detector: PDA (200-500 nm) Column: BEH C18 2.1×50 mm Measurement wavelength: 270 nm Column temperature: 40° C. Injection amount: 10 μL Mobile phase: • Solvent A, acetonitrile; • Solvent B, 10 mM ammonium bicarbonate aqueous solution (pH 9.0) Gradient conditions: […]

Storage stability test = type: physicochemical
Experimental: For the stability test, approximately 20 mg of the test sample was stored at 25° C./60% RH or at 40° C./75% RH in open or closed condition for 1 month using a small environmental tester SH-641 (manufactured by Espec), and changes in purity and in crystalline form were observed.
For purity measurement, equipment of Waters ACQUITY UPLC H-Class (manufactured by Waters) and column of Waters ACQUITY BEH C18 (particle diameter […], size 2.1×50 mm) are used. For the mobile phase, 10 mmol/L ammonium bicarbonate buffer pH 9.0 and acetonitrile were used; and the test sample solution at 100 μg/mL in the mixture solvent of THF (tetrahydrofuran):10 mmol/L ammonium bicarbonate buffer (20:80) was prepared.
(Test Example 2) Storage Stability Test
The type I (Example 2), III (Example 3), V (Example 4) and VI (Example 5) crystals (each about 20 mg) of 1-((1R,2R)-2-hydroxy-4,4-dimethyl-1,2,3,4-tetrahydronaphthalen-1-yl)-3-(5-methyl-6-(2-methylpyrimidin-5-yl)-2-phenylpyridin-3-yl)urea obtained in the above Examples 2 to 5 were stored in glass bottles under the respective conditions described in Table 7. After completion of the storage period, the retrieved sample was confirmed on the purity by high performance liquid chromatography and on the crystal form by powder X-ray diffraction analysis as in the Examples.

[3] = Photostability test according to ICH Q1B; type: physicochemical; conditions: for Stability against light: result in words
Experimental: (Test Example 3) Photostability Test
The type I (Example 2), III (Example 3), V (Example 4), and VI (Example 5) crystals (each about 20 mg) of 1-((1R,2R)-2-hydroxy-4,4-dimethyl-1,2,3,4-tetrahydronaphthalen-1-yl)-3-(5-methyl-6-(2-methylpyrimidin-5-yl)-2-phenylpyridin-3-yl)urea obtained in the above Examples 2 to 5 were placed in a transparent plastic container and covered, and were subjected to photostability test according to the ICH Q1B (Guidelines on Photostability Testing of New Active Substances and Medicinal Products) described in Table 8 (Here, the photostability test samples were stored at about 25° C. under separate lamps which respectively emits visible light and UV-A light so that the total light exposure should be 1.2 million lux hours and 200 W hours/m^2 or more, respectively. A 5-day study should be designated as “0.5 ICH” and a 10-day study as “1 ICH”). […] After completion of the test, the retrieved sample was confirmed on the purity by high performance liquid chromatography and on the crystal form by powder X-ray diffraction analysis as in the Examples.

human TrkA protein = human TrkA protein (Homo sapiens (Human), UniProt P04629); assay: Evaluation on binding activity against human TrkA protein (TrkA LanthaScreen Eu Kinase Binding Assay); conditions: TrkA enzyme, Kinase Tracer 236, TR-FRET
Experimental: (Pharmacology Experiment 1): Evaluation on Binding Activity Against Human TrkA Protein
Measurements were made using TrkA LanthaScreen™ Eu Kinase Binding Assay (ThermoFisher SCIENTIFIC). Into 384 well plates (Corning), a 2.5 μL solution having each concentration of the test compound (1) diluted in Kinase buffer (ThermoFisher SCIENTIC) and a 2.5 μL having 15 nM TrkA enzyme (ThermoFisher SCIENTIFIC) were added. In addition, a 5 μL having 3 nM Eu-anti-His Tag […] (ThermoFisher SCIENTIFIC) and 5 μL having 30 nM Kinase™ Tracer 236 (ThermoFisher SCIENTIFIC) were added, and allowed to react at room temperature for 60 minutes. After the reaction, the fluorescence ratio was calculated as the binding amount of the test compound (1) with TrkA enzyme, by measuring the fluorescence intensity (Emission wavelength 615 nm) and TR-FRET (Emission wavelength 665 nm) of Europium by the excitation wavelength of 340 nm using EnVision 2100 (PerkinElmer). […]
The inhibitory activity of each crystal of the test compound (1), which is 1-((1R,2R)-2-hydroxy-4,4-dimethyl-1,2,3,4-tetrahydronaphthalen-1-yl)-3-(5-methyl-6-(2-methylpyrimidin-5-yl)-2-phenylpyridin-3-yl)urea can be assessed by IC50 value.

[4] = 25° C./60% RH, closed for 1 month
[5] = 25° C./60% RH, open for 1 month
[6] = 40° C./75% RH, closed for 1 month
[7] = 40° C./75% RH, open for 1 month
[8] = Shielded from light by aluminum foil, 0.5 ICH
[9] = Shielded from light by aluminum foil, 1 ICH
[10] = Shielded from light by aluminum foil, Before the test

human TrkA protein, sequence (P04629 33-796): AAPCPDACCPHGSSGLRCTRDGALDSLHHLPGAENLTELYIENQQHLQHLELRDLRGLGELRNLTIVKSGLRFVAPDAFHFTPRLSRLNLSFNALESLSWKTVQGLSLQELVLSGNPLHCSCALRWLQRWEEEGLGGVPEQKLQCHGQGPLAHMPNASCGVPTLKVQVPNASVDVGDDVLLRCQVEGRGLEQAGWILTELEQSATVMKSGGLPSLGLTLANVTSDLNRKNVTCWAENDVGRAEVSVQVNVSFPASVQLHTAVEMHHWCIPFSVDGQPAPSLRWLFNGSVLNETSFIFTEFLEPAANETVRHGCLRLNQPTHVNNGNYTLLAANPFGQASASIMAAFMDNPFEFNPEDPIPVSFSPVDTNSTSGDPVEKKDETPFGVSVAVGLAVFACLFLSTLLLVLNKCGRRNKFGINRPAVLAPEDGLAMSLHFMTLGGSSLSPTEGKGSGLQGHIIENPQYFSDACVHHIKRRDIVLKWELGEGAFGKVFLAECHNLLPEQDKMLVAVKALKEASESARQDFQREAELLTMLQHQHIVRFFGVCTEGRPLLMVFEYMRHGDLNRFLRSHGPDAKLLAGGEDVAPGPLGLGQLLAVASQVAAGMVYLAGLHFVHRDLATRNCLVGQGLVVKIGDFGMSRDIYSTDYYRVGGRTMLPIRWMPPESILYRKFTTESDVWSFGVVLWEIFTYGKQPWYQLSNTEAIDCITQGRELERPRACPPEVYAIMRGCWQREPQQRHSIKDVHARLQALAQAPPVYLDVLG

Row | SMILES | Solubility [2] [µg/mL] | Chemical purity (%) (Storage stability test; [4]) | Crystalline form after completion of storage period (Storage stability test; [4]) | Chemical purity (%) (Storage stability test; [5]) | Crystalline form after completion of storage period (Storage stability test; [5]) | Chemical purity (%) (Storage stability test; [6]) | Crystalline form after completion of storage period (Storage stability test; [6]) | Chemical purity (%) (Storage stability test; [7]) | Crystalline form after completion of storage period (Storage stability test; [7]) | Chemical purity (%) (Storage stability test; Before the test) | Crystalline form after completion of storage period (Storage stability test; Before the test) | Chemical purity (%) ([3]; Exposure, 0.5 ICH (5-day)) | Crystalline form after completion of storage period ([3]; Exposure, 0.5 ICH (5-day)) | Chemical purity (%) ([3]; Exposure, 1 ICH (10-day)) | Crystalline form after completion of storage period ([3]; Exposure, 1 ICH (10-day)) | Chemical purity (%) ([3]; Exposure, Before the test) | Crystalline form after completion of storage period ([3]; Exposure, Before the test) | Chemical purity (%) [3, 8] [%] | Crystalline form after completion of storage period [3, 8] | Chemical purity (%) [3, 9] [%] | other results
1 | Cc1ncc(-c2nc(-c3ccccc3)c(NC(=O)N[C@@H]3c4ccccc4C(C)(C)C[C@H]3O)cc2C)cn1 [Example 2, 1-((1R,2R)-2-hydroxy-4,4-dimethyl-1,2,3,4-tetrahydronaphthalen-1-yl)-3-(5-methyl-6-(2-methylpyrimidin-5-yl)-2-phenylpyridin-3-yl)urea] | 33.2 (≈ 67.3 µM) | 99.8 | Type I crystal | 99.8 | Type I crystal | 99.8 | Type I crystal | 99.8 | Type I crystal | 99.8 | Type I crystal | 99.2 | Type I crystal | 98.9 | Type I crystal | 99.8 | Type I crystal | 99.8 | Type I crystal | 99.8 | AUC ([1]; oral single dose 600 mg/kg in 0.5 w/v % methylcellulose 400, read-out: Area Under Plasma Concentration (AUC)): 561 µg·h/mL; Cmax ([1]; oral single dose 600 mg/kg in 0.5 w/v % methylcellulose 400, read-out: Maximum Plasma Concentration (Cmax)): 29700 ng/mL; Moisture absorption (Storage stability test; during the storage period): no moisture absorption was observed; Chemical and physical stability over the test period (Storage stability test; storage for 1 month, result in words): chemically and physically stable; Crystalline form after completion of storage period [3, 9]: Type I crystal; Chemical purity (%) [3, 10]: 99.8%; Crystalline form after completion of storage period [3, 10]: Type I crystal; Stability against light ([3]; listed as type I crystal): stable against light
2 | Cc1ncc(-c2nc(-c3ccccc3)c(NC(=O)N[C@@H]3c4ccccc4C(C)(C)C[C@H]3O)cc2C)cn1 [Example 3, 1-((1R,2R)-2-hydroxy-4,4-dimethyl-1,2,3,4-tetrahydronaphthalen-1-yl)-3-(5-methyl-6-(2-methylpyrimidin-5-yl)-2-phenylpyridin-3-yl)urea] | 66.0 (≈ 134 µM) | 100.00 | Type III crystal | 100.00 | Type III crystal | 100.00 | Type III crystal | 100.00 | Type III crystal | 100.00 | Type III crystal | 100.0 | Type III crystal | 100.0 | Type III crystal | 100.0 | Type III crystal | 100.0 | Type III crystal | 100.0 | IC50 (human TrkA protein): ≤ 50 nM; Crystalline form after completion of storage period [3, 9]: Type III crystal; Chemical purity (%) [3, 10]: 100.0%; Crystalline form after completion of storage period [3, 10]: Type III crystal; Stability against light ([3]; listed as type III crystal): stable against light
